According to patent EP3641735B1, “PHARMACEUTICAL TABLET COMPOSITION COMPRISING BILASTINE FORM 3 AND A WATER-SOLUBLE FILLER” (Alfred E. Tiefenbacher (GmbH & Co. KG), priority 2017, dated 2019):

Columns and labels:
[1] = neat forms; 1 month at 25°C/60%RH and at 40°C/75%RH; cited from earlier work
[2] = Polymorphic analysis of API by XRD before and after micronisation (jet milling); format: physicochemical
Source text: For example, two from five batches of micronized API have shown the contamination of form 2 with form 3 and dihydrate form A.

SMILES | polymorphic stability on storage [1] | polymorphic form of API after micronisation (XRD) ([2]; listed as polymorphic form 2) | polymorphic form of API after micronisation (XRD) ([2]; listed as Bilastine form 3)
CCOCCn1c(C2CCN(CCc3ccc(C(C)(C)C(=O)O)cc3)CC2)nc2ccccc21 [Alpha, 2-[4-(2-(4-(1-(2-ethoxyethyl)-1H-benzimidazol-2-yl)piperidin-1-yl)ethyl)phenyl]-2-methylpropionic acid] | stable on storage |  | 
CCOCCn1c(C2CCN(CCc3ccc(C(C)(C)C(=O)O)cc3)CC2)nc2ccccc21 [Eta, 2-[4-(2-(4-(1-(2-ethoxyethyl)-1H-benzimidazol-2-yl)piperidin-1-yl)ethyl)phenyl]-2-methylpropionic acid] | stable on storage |  | 
CCOCCn1c(C2CCN(CCc3ccc(C(C)(C)C(=O)O)cc3)CC2)nc2ccccc21 [form 1, 2-[4-(2-(4-(1-(2-ethoxyethyl)-1H-benzimidazol-2-yl)piperidin-1-yl)ethyl)phenyl]-2-methylpropionic acid] | stable on storage |  | 
CCOCCn1c(C2CCN(CCc3ccc(C(C)(C)C(=O)O)cc3)CC2)nc2ccccc21 [form 2, 2-[4-(2-(4-(1-(2-ethoxyethyl)-1H-benzimidazol-2-yl)piperidin-1-yl)ethyl)phenyl]-2-methylpropionic acid] | stable on storage | presence of form 3 and dihydrate form A as polymorphic impurities | 
CCOCCn1c(C2CCN(CCc3ccc(C(C)(C)C(=O)O)cc3)CC2)nc2ccccc21 [form 3, 2-[4-(2-(4-(1-(2-ethoxyethyl)-1H-benzimidazol-2-yl)piperidin-1-yl)ethyl)phenyl]-2-methylpropionic acid] | converted partially into the form 1 |  | remains in the polymorphic form 3 without changes
